Earlier results, collected in patent publication US7820652B2, “Regimen for the administration of rifamycin-class antibiotics” (ActivBiotics Pharma, LLC, priority 2003, dated 2010).

How the values were obtained:
[1] = system: mycobacterium species

## CO[C@H]1/C=C/O[C@@]2(C)Oc3c(C)c(O)c4c(=O)c(c5oc6cc(N7CCN(CC(C)C)CC7)cc(O)c6nc-5c4c3C2=O)NC(=O)/C(C)=C\C=C\[C@H](C)[C@H](O)[C@@H](C)[C@@H](O)[C@@H](C)[C@H](OC(C)=O)[C@@H]1C [rifalazil]
[1]
  activity against mycobacterium species: effective
[1]; once or twice-a-week dose regimen, U.S. Pat. No. 6,316,433
  efficacy against mycobacterium species: efficacious
Clinical trials, twice-a-week dosing regimen
  number and severity of adverse reactions: clear dose-related incidence
Daily administration
  blood cell counts and blood hemoglobin: changes in blood cell counts
Daily dose regimen
  adverse reactions: severe adverse reactions
once- or twice-a-week dosing regimen
  incidence of adverse reactions: reduced, but did not eliminate
